This test concerns the target T1, subunit H of V-ATPase (recombinant subunit H) (Mythimna separata, UniProt A0A0D3L6K4).
T1 construct: full CDS in pET-15b, N-terminal His tag, E. coli BL21 (DE3), Ni-NTA twice, ~55 kDa, free subunit
T1 sequence (A0A0D3L6K4 1-474): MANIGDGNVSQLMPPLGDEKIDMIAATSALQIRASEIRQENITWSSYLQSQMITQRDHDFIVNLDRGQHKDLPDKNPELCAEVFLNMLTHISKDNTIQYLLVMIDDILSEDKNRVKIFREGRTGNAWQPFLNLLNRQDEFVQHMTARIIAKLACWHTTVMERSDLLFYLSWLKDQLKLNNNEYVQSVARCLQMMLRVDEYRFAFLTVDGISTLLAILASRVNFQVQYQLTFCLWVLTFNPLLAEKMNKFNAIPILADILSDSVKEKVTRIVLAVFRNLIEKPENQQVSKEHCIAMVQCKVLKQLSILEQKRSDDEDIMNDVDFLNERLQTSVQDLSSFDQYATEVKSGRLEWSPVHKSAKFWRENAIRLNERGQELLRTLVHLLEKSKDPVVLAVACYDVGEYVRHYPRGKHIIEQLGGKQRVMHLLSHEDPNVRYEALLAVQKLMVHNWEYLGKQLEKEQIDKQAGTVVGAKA
Put plainly: microscale thermophoresis (Monolith NT.[…]), RED-NHS labelled protein. It is filed as binding.

The source of these data is article PMC4810224, “Validation of the Target Protein of Insecticidal Dihydroagarofuran Sesquiterpene Polyesters” (Toxins, 2016).

As a reminder, the Kd is the equilibrium constant for the complex coming apart. `CNc1ccccc1C(=O)O[C@@H]1[C@H]2[C@H](OC(=O)C(C)C)[C@@H](OC(=O)c3ccccc3)[C@]3(COC(=O)C(C)C)[C@@H](OC(C)=O)[C@@H](OC(C)=O)C[C@](C)(O)[C@@]13OC2(C)C` [CV-6-N-methylisatoic]: the Kd was 213 µM.

For `CC(=O)O[C@H]1C[C@](C)(O)[C@]23OC(C)(C)[C@H]([C@H](OC(=O)C(C)C)[C@@H](OC(=O)c4ccccc4)[C@]2(COC(=O)C(C)C)[C@H]1OC(C)=O)[C@H]3OC(=O)CN` [CV-6-aminoacetic acid ester], the equilibrium dissociation constant (Kd) was determined as 156 µM.

Regarding `CC(=O)O[C@H]1C[C@](C)(O)[C@]23OC(C)(C)[C@H]([C@H](OC(=O)C(C)C)[C@@H](OC(=O)c4ccccc4)[C@]2(COC(=O)C(C)C)[C@H]1OC(C)=O)[C@H]3OC(=O)C(C)N` (stereo partly drawn) [CV-6-α-aminopropanoic acid ester], the dissociation constant (Kd) came out at 144 µM.
